In paper PMC11078746 (Nature, 2024):
Values joined by “and” are separate entries in the source; they are usually repeats but may differ in a detail not shown here. Equal entries are not always repeated.

What was measured:
[1] = Mouse body weight, SW48 xenograft study with HRO761; format: in vivo; parameters: Body weight change, individual animals / Body weight change, group mean: unit not given here; settings: for Body weight change, group mean / Body weight change, individual animals: SW48 xenograft-bearing mice
Experimental: All animal studies were conducted in accordance with ethics and procedures covered by permit BS-2275 and BS-1975 issued by the Kantonales Veterinäramt Basel-Stadt and in strict adherence to guidelines of the Eidgenössisches Tierschutzgesetz and the Eidgenössische Tierschutzverordnung, Switzerland. All animal studies were approved by the internal ethics committee. All animals had access to food and water ad libitum and were identified with transponders. They were housed in a specific-pathogen-free facility in IVC racks under a 12 h–12 h light–dark cycle. To establish cell-line-derived xenograft models, 6–7-week-old female athymic nude (Crl:NU(NCr)-Foxn1^nu) or SCID-BEIGE (CB17.Cg-PrkdcscidLystbg-J/Crl) mice from Charles River were engrafted subcutaneously with 5 million tumour cells in HBSS (H6648, Sigma-Aldrich). For SNU-407, Lovo, IM95, RL95.2, Ishikawa and IGROV-1, the cells were concentrated in 50% Matrigel (354234, Corning). Patient-derived xenografts were induced and expanded by transplantation as previously described. […] For the efficacy experiment, mice were randomized into groups (n = 5–6) for a mean tumour size of 100–150 mm^3. […] Blood samples were collected on day 7 and 91. […] Tumour responses are reported with the measures of tumour volumes from the treatment start. […] Animals were randomized (n = 3) and tumour samples were collected at 0, 1, 4, 8 and 24 h on the first day and then collected 4 h after the last treatment on day 3, 8, 10, 14 (including a 24 h timepoint), 17 and 21. Tumours were excised, weighed, either frozen in liquid nitrogen and cryogenic dry pulverized with the CryoPrep system (model CP-02, Covaris) or processed to FFPE after fixation. […] On day 12, blood samples were collected for PK analysis. On the last day (3 h after the last treatment), tumours were excised, weighed, frozen in liquid nitrogen and cryogenic dry pulverized for PD analysis.

EN = test: CFA 10-14 day clonogenic assay; format: cell-based; settings: Homo sapiens
SNUC5 = test: 4 day proliferation assay (CellTiter-Glo); settings: Homo sapiens, 96 h, read-out: 4 day assay GI50
SNGM = test: 4 day proliferation assay (CellTiter-Glo); settings: Homo sapiens, 96 h, read-out: 4 day assay GI50
[2] = HRO761 120mg/kg, day 0 post 1st dose

CCc1c(N2CCN(C(=O)c3ncnc(C)c3O)CC2)c(=O)n2nc(C3=CCOCC3)nc2n1CC(=O)Nc1ccc(C(F)(F)F)cc1Cl [HRO761]
Mean DBW ([1]; HRO761 60mg/kg, day 31 post 1st dose): 5.38%
Mean DBW ([1]; HRO761 60mg/kg, day 35 post 1st dose): 4.36%
Mean DBW ([1]; HRO761 60mg/kg, day 38 post 1st dose): 2.35%
Mean DBW ([1]; HRO761 60mg/kg, day 42 post 1st dose): 3.45%
Mean DBW ([1]; HRO761 60mg/kg, day 45 post 1st dose): 2.45%
Mean DBW ([1]; HRO761 60mg/kg, day 49 post 1st dose): 3.51%
Mean DBW ([1]; HRO761 60mg/kg, day 52 post 1st dose): 2.35%
Mean DBW ([1]; HRO761 60mg/kg, day 56 post 1st dose): 2.93%
Mean DBW ([1]; HRO761 60mg/kg, day 59 post 1st dose): 4.86%
Mean DBW ([1]; HRO761 60mg/kg, day 63 post 1st dose): 4.98%
Mean DBW ([1]; HRO761 60mg/kg, day 66 post 1st dose): 5.96%
Mean DBW ([1]; HRO761 60mg/kg, day 70 post 1st dose): 5.36%
Mean DBW ([1]; HRO761 60mg/kg, day 73 post 1st dose): 5.45%
Mean DBW ([1]; HRO761 60mg/kg, day 76 post 1st dose): 8.05%
Mean DBW ([1]; HRO761 60mg/kg, day 79 post 1st dose): 6.02%
Mean DBW ([1]; HRO761 60mg/kg, day 83 post 1st dose): 6.63%
Mean DBW ([1]; HRO761 60mg/kg, day 86 post 1st dose): 7.71%
Delta BW change, individual mouse [1, 2]: 0%
Mean DBW [1, 2]: 0.00%
Mean DBW ([1]; HRO761 120mg/kg, day 3 post 1st dose): -2.05%
Delta BW change, individual mouse ([1]; HRO761 120mg/kg, day 3 post 1st dose, 120 mg/kg): -1.24% and 0% and -5.24% and -5.96% and 2.18%
Mean DBW ([1]; HRO761 120mg/kg, day 7 post 1st dose): 0.64%
Delta BW change, individual mouse ([1]; HRO761 120mg/kg, day 7 post 1st dose, 120 mg/kg): 0% (2×) and 3.8% and -3.23% and 2.62%
Mean DBW ([1]; HRO761 120mg/kg, day 10 post 1st dose): 0.034%
Delta BW change, individual mouse ([1]; HRO761 120mg/kg, day 10 post 1st dose, 120 mg/kg): 2.07% and 3.8% and -2.42% and -4.59% and 1.31%
Mean DBW ([1]; HRO761 120mg/kg, day 14 post 1st dose): 1.43%
Delta BW change, individual mouse ([1]; HRO761 120mg/kg, day 14 post 1st dose, 120 mg/kg): 4.15% and 4.56% and -2.82% and -0.92% and 2.18%
Mean DBW ([1]; HRO761 120mg/kg, day 17 post 1st dose): 1.14%
Mean DBW ([1]; HRO761 120mg/kg, day 21 post 1st dose): 5.29%
Mean DBW ([1]; HRO761 120mg/kg, day 24 post 1st dose): 6.66%
Mean DBW ([1]; HRO761 120mg/kg, day 28 post 1st dose): 5.89%
Mean DBW ([1]; HRO761 120mg/kg, day 31 post 1st dose): 6.52%
Mean DBW ([1]; HRO761 120mg/kg, day 35 post 1st dose): 7.34%
Mean DBW ([1]; HRO761 120mg/kg, day 38 post 1st dose): 4.89%
Mean DBW ([1]; HRO761 120mg/kg, day 42 post 1st dose): 6.61%
Mean DBW ([1]; HRO761 120mg/kg, day 45 post 1st dose): 7.02%
Mean DBW ([1]; HRO761 120mg/kg, day 49 post 1st dose): 8.54%
Mean DBW ([1]; HRO761 120mg/kg, day 52 post 1st dose): 5.69%
Mean DBW ([1]; HRO761 120mg/kg, day 56 post 1st dose): 7.31%
Mean DBW ([1]; HRO761 120mg/kg, day 59 post 1st dose): 8.08%
Mean DBW ([1]; HRO761 120mg/kg, day 63 post 1st dose): 9.90%
Mean DBW ([1]; HRO761 120mg/kg, day 66 post 1st dose): 9.60%
Mean DBW ([1]; HRO761 120mg/kg, day 70 post 1st dose): 9.57%
Mean DBW ([1]; HRO761 120mg/kg, day 73 post 1st dose): 7.95%
Mean DBW ([1]; HRO761 120mg/kg, day 76 post 1st dose): 11.43%
Mean DBW ([1]; HRO761 120mg/kg, day 79 post 1st dose): 9.25%
Mean DBW ([1]; HRO761 120mg/kg, day 83 post 1st dose): 10.23%
Mean DBW ([1]; HRO761 120mg/kg, day 86 post 1st dose): 9.35%
Body weight change, group mean ([1]; HRO761 40mg/kg, day 90 post 1st dose): 13.42
Body weight change, individual animals ([1]; HRO761 40mg/kg, day 90 post 1st dose, 40 mg/kg): 12.73 and 18.18 and 7.58 and 10.23 and 18.39
Body weight change, group mean ([1]; HRO761 40mg/kg, day 92 post 1st dose): 10.60
Body weight change, individual animals ([1]; HRO761 40mg/kg, day 92 post 1st dose, 40 mg/kg): 10.45 and 10.82 and 5.05 and 12.5 and 14.18
Body weight change, group mean ([1]; HRO761 60mg/kg, day 90 post 1st dose): 7.89
Body weight change, individual animals ([1]; HRO761 60mg/kg, day 90 post 1st dose, 60 mg/kg): 7.66 and 9.39 and 10.88 and 1.67 and 9.83
Body weight change, group mean ([1]; HRO761 60mg/kg, day 92 post 1st dose): 5.46
Body weight change, individual animals ([1]; HRO761 60mg/kg, day 92 post 1st dose, 60 mg/kg): 5.11 and 6.53 and 6.69 and 0.42 and 8.55
Body weight change, group mean ([1]; HRO761 120mg/kg, day 90 post 1st dose): 10.59
Body weight change, individual animals ([1]; HRO761 120mg/kg, day 90 post 1st dose, 120 mg/kg): 9.96 and 14.07 and 7.66 and 5.96 and 15.28
Body weight change, group mean ([1]; HRO761 120mg/kg, day 92 post 1st dose): 7.50
Body weight change, individual animals ([1]; HRO761 120mg/kg, day 92 post 1st dose, 120 mg/kg): 5.81 and 9.13 and 4.84 and 5.5 and 12.23
toxicity inferred from animal weight ([1]; doses up to 120 mg per kg): did not cause toxicity
GI50 (EN): ≥ 10 µM
GI50 (SNUC5): 7.24 µM
GI50 (SNGM): ≥ 10 µM
